Assays:
[1] = system: Phytophthora; test: D-3: Action against Phytophthora on potato plants (residual-protective and systemic action); format: in vivo; details: potato plants (Bintje variety), spray mixture 0.02% active ingredient (sprayed or watered), evaluated after 4 days at 90-100% relative humidity and 20° C.
Description: D-3 Action Against Phytophthora on Potato Plants
(§1) a) Residual-Protective Action
(§2) 2-3 week old potato plants (Bintje variety) are sprayed with a spray mixture (0.02% active ingredient) prepared from a wettable powder formulation of the test compound. After 48 hours, the treated plants are infected with a sporangia suspension of the fungus. Fungus infestation is evaluated after incubation of the infected plants for 4 days at 90-100% relative humidity and 20° C.
as §2, with “watered” for “sprayed”, “ingredient based on the volume of the soil)” for “ingredient)”, “compound. […]” for “compound.”, “C. Fungal infestation is effectively controlled with compounds of Tables 1 to 37. Compounds A1.02, A1.03, A1.04, A1.03, A1.05, A1.06, A1.07, A1.09, A1.10, A1.13, A1.14, A1.15, A1.16, A1.21, A1.23.” for “C.”

[2] = system: Phytophthora; test: D-2: Action against Phytophthora on tomato plants (residual-protective and systemic action); format: in vivo; details: spray mixture 0.02% active ingredient (sprayed or watered), evaluated after 4-5 days at 90-100% relative humidity and 20° C.
Description: D-2: Action Against Phytophthora on Tomato Plants
as §1
(§3) After a cultivation period of 3 weeks, tomato plants are sprayed with a spray mixture (0.02% active ingredient) prepared from a wettable powder formulation of the test compound. After 48 hours, the treated plants are infected with a sporangia suspension of the fungus. Fungus infestation is evaluated after incubation of the infected plants for 5 days at 90-100% relative humidity and 20° C.
as §3, with “watered” for “sprayed”, “ingredient based on the volume of the soil)” for “ingredient)”, “compound. […]” for “compound.”, “96” for “48”, “4” for “5”, “C. […] Compounds A1.02, A1.03, A1.04, A1.03, A1.05, A1.06, A1.07, A1.09, A1.10, A1.13, A1.14, A1.15, A1.16, A1.21, A1.23.” for “C.”

[3] = system: Plasmopara viticola; test: D-1: Action against Plasmopara viticola on vines (residual-protective and residual-curative action); format: in vivo; details: vine seedlings, spray mixture 0.02% active ingredient, evaluated after 6 days at 95-100% relative humidity and 20° C.
Description: D-1: Action against Plasmopara viticola on Vines a) Residual-Protective Action
Vine seedlings are sprayed at the 4- to 5-leaf stage with a spray mixture (0.02% active ingredient) prepared from a wettable powder formulation of the test compound. After 24 hours, the treated plants are infected with a sporangia suspension of the fungus. Fungus infestation is evaluated after incubation for 6 days at 95-100% relative humidity and 20° C. […]
b) Residual-Curative Action
Vine seedlings are infected at the 4- to 5-leaf stage with a sporangia suspension of the fungus. After incubation for 24 hours in a humidity chamber at 95-100% relative humidity and 20° C., the infected plants are dried and sprayed with a spray mixture (0.02% active ingredient) prepared from a wettable powder formulation of the test compound. After the spray coating has dried, the treated plants are placed in the humidity chamber again. Fungus infestation is evaluated 6 days after infection. […] Compounds A1.02, A1.03, A1.04, A1.03, A1.5, A1.06, A1.07, A1.09, A1.10, A1.13, A1.14, A1.15, A1.16, A1.21, A1.23.

| SMILES | melting point [°C] | Fungus infestation [1] | Fungus infestation [2] | Fungus infestation [3] |
| --- | --- | --- | --- | --- |
| CCS(=O)(=O)N[C@H](C(=O)NCCc1ccc(OCCOc2ccc(F)cc2)c(OC)c1)C(C)C | 124 to 125 |  |  |  |
| CCS(=O)(=O)N[C@H](C(=O)NCCc1ccc(OC/C=C\c2ccc(Cl)cc2)c(OC)c1)C(C)C [Compound A3.03, Z-(S)-N-(2-{4-[3-(4-Chloro-phenyl)-allyloxy]-3-methoxy-phenyl}-ethyl)-2-ethanesulfonylamino-3-methyl-butyramide] | 141 to 143 | completely inhibit fungal infestation | completely inhibit fungal infestation | completely inhibit fungal infestation |
| CCS(=O)(=O)N[C@H](C(=O)NCCc1ccc(OCCOc2cccc(F)c2)c(OC)c1)C(C)C [Compound A1.23] |  | completely inhibit fungal infestation | completely inhibit fungal infestation | completely inhibit fungal infestation |
| CCS(=O)(=O)N[C@H](C(=O)NCCc1ccc(OCCOc2ccc(C)cc2)c(OC)c1)C(C)C [Compound A1.24] |  | completely inhibit fungal infestation | completely inhibit fungal infestation | completely inhibit fungal infestation |

— patent US20020082452A1, “alpha-sulfin-and alpha-sulfonamino acid amides” (priority 1998, published 2002)
